Experimental data from patent US20150202219A1, “NEUROPROTECTION FROM BRAIN ANOXIA AND REPERFUSION INJURY DURING STROKE AND COMPOSITIONS OF PKG PATHWAY ACTIVATORS AND METHOD OF USE THEREOF” (Florida Atlantic University, priority 2010, published 2015).

Experiments:
PKG = PKG enzyme activity assay on heads of treated flies; format: biochemical, Drosophila melanogaster; details: heads of animals from FIG. 4a experiments; N=6 for each treatment; SNK
Protocol: PKG enzyme activity assays were conducted according to the procedure outlined in Kaun et al. (2007)(Kaun et al., 2007b). Adult Drosophila were decapitated and the heads were homogenized in 25 mM 1-1 Tris (pH 7.4), 1 mM 1-1 EDTA, 2 mM 1-1 EGTA, 5 mM 1-1 β-mercaptoethanol, 0.05% Triton X-100 and protease inhibitor solution (Roche Diagnostics). Following microcentrifugation for 5 min, the supernatant was removed and those supernatants containing equal amounts of total protein were examined for PKG enzyme activity. The reaction mixture contained the following substances: 40 mM 1-1 Tris-HCl (pH 7.4), 20 mM 1-1 magnesium acetate, 0.2 mM 1-1 [γ^32P]ATP (500-1000 c.p.m. pmol-1), 113 mg ml-1 heptapeptide (RKRSRAE), 3 mM 1-1 cGMP and a highly specific inhibitor of cAMP-dependent protein kinase. The next step of the procedure involved incubating the reaction mixtures at a temperature of 30° C. for 10 min, followed by ending the reaction by spotting 70 μl of the reaction mixture onto Whatman P-81 filters. To remove any unreacted [γ^32P]ATP, these spots were then soaked with 75 mM 1-1 H3PO4 for 5 min and washed three times with 75 mM 1-1 H3PO4. Before quantifying enzyme activity, filters were rinsed with 100% ethanol and air dried. To calculate PKG enzyme activity, counts were taken in a Wallac 1409 Liquid Scintillation Counter using universal scintillation cocktail (ICN). PKG activity was presented in the figures as pmol of ^32P incorporated into the substrate min-1 mg-1 protein.

[1] = system: adult Drosophila melanogaster; assay: Time to anoxic coma onset (locomotion failure) during acute hypoxia after volatilized drug treatment; format: in vivo; details: adult sitter flies; single agent volatilized from 10 uL DMSO for 1 hr; 1 mM KT5823, 1 mM Cantharidin, 200 mM DCA, 10 mM 8-Bromo cGMP, 10 mM T-0156; argon displacement; Dunn's p<0.05
Protocol: Using both genetics and pharmacology, the roles and order of function of additional cGMP-dependent signaling molecules in modulating acute low-oxygen sensitivity of locomotory failure were examined. To do this, we imposed acute hypoxia (<0.2% O2 within 5 min) by displacing environmental oxygen with the inert gas argon and then measured time to failure of locomotion (anoxic coma), which can be observed in less than 2% atmospheric oxygen (Haddad, 2000). We also used a novel but reliable method of pharmacological volatilization as a means to manipulate, in vivo, the activity of target enzymes and molecules such as PKG. Flies were frozen immediately after each trial, and heads were dissected and examined for PKG activity, as an indicator for activity levels in the brain (Belay et al., 2007; Kaun et al., 2007b). Lastly, using adult flies we tested what has been previously shown in embryos and larva (Wingrove and O'Farrell, 1999), the effect of prolonged anoxia (6 hours) on animal survival, after a 24 hour recovery.
Ten flies (separated into males or females) from each of the three strains (rover [for^R], sitter [for^s] and for^s2) were selected and placed in three separate vials with food at least 24 hours before each experiment. At the time of the experiment, flies were emptied into 10 mL empty test vials covered with permeable sponge caps of equivalent thickness, allowing for consistent gas exchange. These test vials were then placed into a 600 mL beaker which was covered with parafilm, creating a closed chamber with an escape hole in the parafilm (1 cm diameter). The purpose of this hole is to allow the lighter normal air (compared to argon which is heavier) to escape from the top of the beaker. The parafilm top was punctured with a needle connected to a gas tank (by a plastic hose), through which the inert gas argon was expelled. Preliminary work was done with pure nitrogen, where no significant differences between the uses of the two gases were observed (data not shown).
The needle tip was fastened to the bottom of the beaker and inserted into a larger sponge of similar texture to the vial sponge caps to ensure that gas expelled from the needle was dispersed equally throughout the beaker. […]
The experiment required exposing the test vials with 10 flies in a vial within the container to pure argon gas expelled from the tank at a flow rate of 600 cc/min±5%. Time of behavioral failure was recorded by observing the fly undergo a seizure, which was quickly followed by an anoxic coma. […] The program recorded these times of failure for each individual fly within the vials and then computed an average failure time for each vial (each vial has 10 flies but gives an average value for N=1). […]

NT-3 = details: cited from earlier work
[2] = molecular target: T1, phosphodiesterase-5 (PDE-5) (Mus musculus, UniProt Q8CG03); details: mice; 1.4-mg/kg intraperitoneal injections daily for 8 days; cited from earlier work
T1 construct: Sildenafil (Viagra) was administered to mice, 1.4-mg/kg intraperitoneal injections daily for 8 days; host or cells: mice in vivo (brain neurons under hypoxia)

protein phosphatase = details: cited from earlier work

SMILES | PKG enzyme activity levels in heads compared to sham control (PKG) | anoxic coma onset sensitivity (time to failure) vs sham control [1] | neurotrophin (NT-3) activity (NT-3) | neuron apoptosis during hypoxia [2] | nerve cell death (protein phosphatase)
C[C@@]12C(=O)OC(=O)[C@]1(C)[C@H]1CC[C@@H]2O1 [Cantharidin] | no significant effects on PKG enzyme activity levels | significant resilience to anoxic coma | – | – | –
COC(=O)[C@@]1(OC)C[C@H]2O[C@]1(C)n1c3ccccc3c3c4c(c5c6ccccc6n2c5c31)C(=O)N(C)C4 [KT5823] | significant effects compared to that of the sham control | significant resilience to anoxic coma | potentiation of NT-3 | – | –
CCCc1nn(C)c2c(=O)[nH]c(-c3cc(S(=O)(=O)N4CCN(C)CC4)ccc3OCC)nc12 [Sildenafil, sildenafil] | – | – | – | reduces neuron apoptosis | –
Nc1nc2c(nc(Br)n2[C@@H]2O[C@@H]3COP(=O)(O)O[C@H]3[C@H]2O)c(=O)[nH]1 [8-Bromo cGMP, 8-Bromo-cGMP] | significant effects compared to that of the sham control | significant sensitivity to anoxic coma | – | – | –
COC(=O)c1c(-c2cc(OC)c(OC)c(OC)c2)c2ccnc(OCc3ncccn3)c2c(=O)n1Cc1ccnc(C)c1 [T-0156] | significant effects compared to that of the sham control | significant sensitivity to anoxic coma | – | – | –
C=C1[C@@H](O)[C@@H]2O[C@]3(CC[C@H](/C=C/[C@@H](C)[C@@H]4CC(C)=C[C@@]5(O[C@H](C[C@@](C)(O)C(=O)O)CC[C@H]5O)O4)O3)CC[C@H]2O[C@@H]1[C@@H](O)C[C@H](C)[C@H]1O[C@@]2(CCCCO2)CC[C@H]1C [Okadaic acid] | – | – | – | – | increase nerve cell death
